Source: patent US6531645B1, “RAS/P21 transgenic mouse” (University of South Florida, priority 2000, dated 2003)

Tested on: mammary tumors of MMTV/v-Ha-ras/p21WAF1 (−/−) transgenic mice
Experiment: Antitumor efficacy of FTI-2148 in MMTV/v-Ha-ras/p21WAF1 (−/−) transgenic mice
Assay type: in vivo, mouse
Settings: 50 mg/Kg/day by subcutaneous osmotic mini-pump
Protocol: The MMTV/v-Ha-Ras/p21waf(−/−) transgenic mice are generated as described herein. When the three mammary tumors reach 4500 mm^3, 2000 mm^3 and 900 mm^3 (see FIG. 1), the mice are implanted subcutaneously with an osmotic mini-pump that delivers 50 mg/Kg/day of the farnesyltransferase inhibitor FTI-2148 that was designed to block oncogenic H-Ras malignant transformation. […] Thus, within 6 days of drug treatment one skilled in the art can determine whether a drug has antitumor activity.
Tumor Development Monitoring and Sample Collection. The female offspring are monitored weekly for tumors by observation and palpation. Tumor diameters are measured in three dimensions using calipers, and tumor volume is calculated as length x width x height. Samples of tumor and normal tissue are collected in 10% neutral buffered formalin for histopathologic analysis. All surgical and experimental procedures performed on the mice are in accordance the NIH guidelines outlined in the “Guide for Care and Use of Laboratory Animals” (NIH publication 85-23). Animals are autopsied immediately after sacrifice, and external as well as internal organs are grossly examined. Representative tissue samples are obtained from salivary glands, mammary glands, lungs, liver, kidneys, spleen, and Harderian (lacrimal) glands. For general microscopy, tissues are embedded in paraffin, and 3 μm-thick sections are cut and stained with hematoxylin and eosin. Tissues are also processed using either an avidin-biotin complex method or a labeled streptavidin-biotin method after antigen retrieval. […] Negative and positive controls include the omission of the primary antibody and normal or tumor tissues with known high marker expression. p21^WAF1/CIP1 expression is analyzed by immunohistochemistry with an anti-p21 antibody (sc-397-G, Santa Cruz Biotechnology). […]

**Q.** For `CSCC[C@H](NC(=O)c1ccc(CNCc2cnc[nH]2)cc1-c1ccccc1C)C(=O)O` [FTI-2148], which “fate by day 15 of one of the three mammary tumors” value (day 15) is on record?
**A.** Its value is “one tumor disappears”.

**Q.** And the “tumor volume by day 15 of the two tumors that started out at 4500 mm^3 and 2000 mm^3” value (day 15)?
**A.** Its value is “less than 500 mm^3”.

**Q.** What about the “time of treatment within which the tumors start to regress” value (three mammary tumors of 4500, 2000 and 900 mm^3 at start) of the same molecule?
**A.** Its value is no more than 6 days.
